Assay [1] deals with USP28 (Homo sapiens (Human), UniProt Q96RU2). In words: Ubiquitin-Rhodamine 110 Assay for USP28 Activity. The format is biochemical. As to the method: The assay was performed in a final volume of 20 μL in assay buffer containing 20 mM Tris-HCl (pH 8.0, (1M Tris-HCl, pH 8.0 solution; Corning 46-031-CM)), 2 mM CaCl2 (1M Calcium Chloride solution; Sigma #21114) 2 mM BME (2-Mercaptoethanol; Sigma 63689-25ML -F), 0.01% Prionex (0.22 μM filtered, Sigma #G-0411), and 0.01% Triton X-100. Stock compound solutions were stored at −20° C. as 10 mM in DMSO. Up to 1 month prior to the assay, 2 mM test compounds were pre-dispensed into assay plates (Black, low volume; Corning #3820) and frozen at −20° C. Prestamped assay plates were allowed to come to room temperature on the day of the assay. For the screen, 100 nL of 2 mM was pre-dispensed for a final screening concentration of 10 μM (DMSO(fc)=0.5%). […] Plates were incubated stacked for 90 minutes at room temperature before fluorescence was read on the Envision (Excitation at 485 nm and Emission at 535 nm; Perkin Elmer) or on the PheraSTAR (Excitation at 485 nm and Emission at 535 nm; BMG Labtech).
Sequence of USP28 (Q96RU2 whole entry): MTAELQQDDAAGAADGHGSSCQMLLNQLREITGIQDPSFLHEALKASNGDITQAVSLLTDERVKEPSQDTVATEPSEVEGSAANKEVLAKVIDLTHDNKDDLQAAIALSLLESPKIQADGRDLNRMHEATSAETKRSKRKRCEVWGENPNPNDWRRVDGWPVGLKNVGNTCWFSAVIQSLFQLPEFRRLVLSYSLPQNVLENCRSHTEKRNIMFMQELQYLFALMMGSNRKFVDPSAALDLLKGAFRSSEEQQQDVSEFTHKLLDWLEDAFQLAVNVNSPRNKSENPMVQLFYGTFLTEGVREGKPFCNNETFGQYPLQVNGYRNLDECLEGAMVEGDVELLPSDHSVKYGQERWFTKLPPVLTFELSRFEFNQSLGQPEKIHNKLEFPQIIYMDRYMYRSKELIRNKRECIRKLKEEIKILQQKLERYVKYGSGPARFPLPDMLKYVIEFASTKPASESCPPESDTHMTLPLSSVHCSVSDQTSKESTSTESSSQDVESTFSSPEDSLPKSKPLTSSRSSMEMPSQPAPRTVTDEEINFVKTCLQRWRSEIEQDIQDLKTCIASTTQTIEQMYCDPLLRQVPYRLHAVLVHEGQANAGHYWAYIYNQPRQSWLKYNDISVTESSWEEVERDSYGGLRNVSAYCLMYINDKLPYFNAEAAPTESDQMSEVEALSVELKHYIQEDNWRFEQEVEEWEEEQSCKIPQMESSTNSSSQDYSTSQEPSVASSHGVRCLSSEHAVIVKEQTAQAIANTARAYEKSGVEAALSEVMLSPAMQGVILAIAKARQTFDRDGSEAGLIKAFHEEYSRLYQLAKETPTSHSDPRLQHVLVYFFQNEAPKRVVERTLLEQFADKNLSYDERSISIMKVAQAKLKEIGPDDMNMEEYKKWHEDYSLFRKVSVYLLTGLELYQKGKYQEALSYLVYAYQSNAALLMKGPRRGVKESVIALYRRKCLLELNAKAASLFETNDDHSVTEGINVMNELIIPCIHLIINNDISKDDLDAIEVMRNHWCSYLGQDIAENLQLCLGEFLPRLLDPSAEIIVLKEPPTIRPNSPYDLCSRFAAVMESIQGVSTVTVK
For follow-up studies, the assay was performed in a final volume of 15 μL in assay buffer containing 20 mM Tris-HCl (pH 8.0, (1M Tris-HCl, pH 8.0 solution; Corning 46-031-CM)), 3 mM BME (2-Mercaptoethanol; Sigma 63689-25ML-F), 0.03% BGG (0.22 μM filtered, Sigma, G7516-25G), and 0.01% Triton X-100 (Sigma, T9284-10L). Nanoliter quantities of either an 8-point or 10-point, 3-fold serial dilution in DMSO was pre-dispensed into assay plates (Perkin Elmer, ProxiPlate-384 F Plus) for a final test concentration of either 25 μM to 11 nM or 25 μM to 1.3 nM, respectively. Enzyme USP28, construct USP28 (USP28-5(1-1077)-TEV-6*His; LifeSensors) concentration and incubation times were optimized for the maximal signal-to -background while maintaining initial velocity conditions at a fixed substrate concentration. The final concentration of the enzyme in the assay was 75 pM. […] 5 μL of 2× enzyme was added to assay plates (pre-stamped with compound) preincubated with USP28 for 30 minutes and then 5 μL of 2× Ub-Rh110 was added to assay plates. Plates were incubated stacked for 20 min at room temperature before 5 μL of stop solution was added (final concentration of 10 mM citric acid (Sigma, 251275-500G)). Fluorescence was read on the Envision (Excitation at 485 nm and Emission at 535 nm; Perkin Elmer) or on the PheraSTAR (Excitation at 485 nm and Emission at 535 nm; BMG Labtech).
(§1) For both the USP28 and USP25 assay formats, data were reported as percent inhibition compared with control wells based on the following equation: % inh=1-((FLU-AveLow)/(AveHigh−AveLow)) where FLU=measured Fluorescence, AveLow=average Fluorescence of no enzyme control (n=16), and AveHigh=average Fluorescence of DMSO control (n=16). IC50 values were determined by curve fitting of the standard 4 parameter logistic fitting algorithm included in the Activity Base software package: IDBS XE Designer Model205. Data is fitted using the Levenburg Marquardt algorithm.

Assay [2] has as its target USP25 (Homo sapiens (Human), UniProt Q9UHP3). Kind of assay: Ubiquitin-Rhodamine 110 Assay for USP25 Activity. In kind it is biochemical. The protocol:
The assay was performed in a final volume of 9 μL in assay buffer containing 20 mM Tris-HCl (pH 8.0, (1M Tris-HC1, pH 8.0 solution; Corning 46-031-CM)), 3 mM BME (2-Mercaptoethanol; Sigma 63689-25ML-F), 0.03% BGG (0.22 μM filtered, Sigma, G7516-25G), and 0.01% Triton X-100 (Sigma, T9284-10L). Nanoliter quantities of 10-point, 3-fold serial dilution in DMSO was pre-dispensed into 1536 assay plates (Corning, #3724BC) for a final test concentration of 25 μM to 1.3 nM, top to lowest dose, respectively. Enzyme USP25, construct USP25-His6, (Boston Biochem E-546). Concentration and incubation times were optimized for the maximal signal-to-background while maintaining initial velocity conditions at a fixed substrate concentration. The final concentration of the enzyme in the assay was 75 pM. […] 3 μL of 2× enzyme was added to assay plates (pre-stamped with compound) preincubated with […] for 30 minutes and then 3 μL of 2× Ub-Rh110 was added to assay plates. Plates were incubated for 45 minutes at room temperature before addition of 3 μL of stop solution (final concentration of 10 mM citric acid (Sigma, 251275-500G)). Fluorescence was read on the Envision (Excitation at 485 nm and Emission at 535 nm; Perkin Elmer) or on the PheraSTAR (Excitation at 485 nm and Emission at 535 nm; BMG Labtech).
as §1

This is an account of results in patent US10913753B2, “Thienopyridine carboxamides as ubiquitin-specific protease inhibitors” (FORMA Therapeutics, Inc., priority 2016, dated 2021).

The structures appear in SMILES notation.

Sequence of USP25 (Q9UHP3 whole entry): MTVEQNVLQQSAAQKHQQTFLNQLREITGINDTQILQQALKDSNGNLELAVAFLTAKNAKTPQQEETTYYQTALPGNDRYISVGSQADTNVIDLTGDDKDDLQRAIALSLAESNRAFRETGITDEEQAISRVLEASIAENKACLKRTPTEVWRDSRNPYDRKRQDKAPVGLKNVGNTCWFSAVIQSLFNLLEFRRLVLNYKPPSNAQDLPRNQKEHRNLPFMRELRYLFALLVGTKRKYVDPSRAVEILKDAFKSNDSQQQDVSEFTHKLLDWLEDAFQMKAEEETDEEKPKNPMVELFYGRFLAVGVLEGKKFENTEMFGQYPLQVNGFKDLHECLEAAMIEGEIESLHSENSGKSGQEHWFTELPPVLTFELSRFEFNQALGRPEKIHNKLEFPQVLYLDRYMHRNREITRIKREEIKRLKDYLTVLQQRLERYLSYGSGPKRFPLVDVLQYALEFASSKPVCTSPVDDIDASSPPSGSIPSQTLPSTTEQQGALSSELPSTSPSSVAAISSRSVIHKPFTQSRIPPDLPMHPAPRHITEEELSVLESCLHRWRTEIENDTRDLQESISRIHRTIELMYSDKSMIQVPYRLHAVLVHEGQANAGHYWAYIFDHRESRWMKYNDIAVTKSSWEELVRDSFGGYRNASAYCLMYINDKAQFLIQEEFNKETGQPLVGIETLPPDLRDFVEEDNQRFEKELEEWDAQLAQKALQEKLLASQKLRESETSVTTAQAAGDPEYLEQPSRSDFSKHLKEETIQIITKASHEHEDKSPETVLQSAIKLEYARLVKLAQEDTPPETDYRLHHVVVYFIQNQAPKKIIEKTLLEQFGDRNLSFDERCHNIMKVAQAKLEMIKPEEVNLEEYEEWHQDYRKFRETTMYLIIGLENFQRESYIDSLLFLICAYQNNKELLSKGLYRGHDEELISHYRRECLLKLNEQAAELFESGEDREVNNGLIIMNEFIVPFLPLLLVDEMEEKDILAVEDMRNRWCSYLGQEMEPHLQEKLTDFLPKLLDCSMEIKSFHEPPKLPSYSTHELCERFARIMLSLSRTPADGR

One may read the IC50 as the midpoint of a concentration-inhibition curve. Low readings indicate higher potency, high ones lower potency. Regarding `Cc1nc2sc(C(=O)NCCc3ccc(N4CCNCC4)cc3)c(N)c2cc1F` [Compound I-63], the IC50 was under 200 nM in assay [1] and 200 to 2000 nM in assay [2].
For the compound `CNC1CN(c2cc(F)c(CCNC(=O)c3sc4nc(C)ccc4c3N)cc2F)C1` [Example I-199, 3-Amino-N-(2,5-difluoro-4-(3-(methylamino)azetidin-1-yl)phenethyl) -6-methylthieno[2,3-b]pyridine-2-carboxamide], the IC50 in assay [1] and in assay [2] was 200 to 2000 nM throughout.
Take `Cc1ccc2c(N)c(C(=O)NCCc3ccc(N4CCNCC4)c(Cl)c3)sc2n1` [Example I-77]: the half-inhibitory concentration (IC50) in assay [1] and in assay [2] was 200 to 2000 nM throughout.
As for `Cc1nc2sc(C(=O)NC[C@H](C)c3ccc(N4CC5CCC(C4)N5)c(F)c3)c(N)c2cc1F` (single isomer, unassigned) [Example I-108], the IC50 in assay [1] and in assay [2] was 200 to 2000 nM throughout.
Turning to `COc1ccc2c(N)c(C(=O)NCCc3ccc(N4CCNCC4)cc3)sc2n1` [Example I-190, 3-Amino-6-methoxy-N-(4-(piperazin-1-yl)phenethyl)thieno[2,3-b]pyridine-2-carboxamide], the IC50 in assay [1] and in assay [2] was 200 to 2000 nM throughout.
As for `Cc1ccc2c(N)c(C(=O)NCCc3ccc(N4CCNCC4)c4c3CCC4)sc2n1` [Compound I-18], the IC50 in assay [1] and in assay [2] was under 200 nM each time.
For `CN(C)c1ccc2c(N)c(C(=O)NCCc3ccc(N4CCNCC4)cc3)sc2n1` [Example I-186, 3-Amino-6-(dimethylamino)-N-(4-(piperazin-1-yl)phenethyl)thieno[2,3-b]pyridine-2-carboxamide], the figures for the IC50 in assay [1] and in assay [2] were 2000 to 10000 nM and 10000 to 25000 nM, respectively.
Turning to `Cc1ccc2c(N)c(C(=O)NCCc3ccc(N4CC5CCC(C4)N5)c(Cl)c3)sc2n1` [Compound I-20], the IC50 in assay [1] and in assay [2] was 200 to 2000 nM in each case.
In the case of `CC(C)Nc1ccc2c(N)c(C(=O)NCCc3ccc(N4CCNCC4)cc3)sc2n1` [Example I-189], the IC50 is 200 to 2000 nM in assay [1] and 2000 to 10000 nM in assay [2].
`Cc1ccc2c(N)c(C(=O)NCCc3ccc(CC(=O)O)cc3)sc2n1` [Example I-174]: the results for the IC50 in assay [1] and in assay [2] were 200 to 2000 nM and 2000 to 10000 nM, respectively.
The corresponding values for `Cc1ccc2c(N)c(C(=O)NC[C@H](C)c3cc(F)c(N4CC5CCC(C4)N5)cc3F)sc2n1` (single isomer, unassigned) [Example I-98] are under 200 nM and 200 to 2000 nM.
Turning to `Cc1ccc2c(N)c(C(=O)NCCc3ccc(N4CC5CCC(C4)N5)cc3)sc2n1` [Compound I-15], the results for the IC50 in assay [1] and in assay [2] were under 200 nM and 200 to 2000 nM, respectively.
The corresponding values for `Cc1ccc2c(N)c(C(=O)NCCc3ccc4c(c3)C[C@@H](C(=O)O)C4)sc2n1` [Example I-177] are 200 to 2000 nM and 200 to 2000 nM.
`Cc1nc2sc(C(=O)NC[C@@H](C)c3ccc(N4CC5CCC(C4)N5)c(F)c3)c(N)c2cc1F` (single isomer, unassigned) [Example I-107]: the IC50 fell in the range of 200 to 2000 nM in assay [1] and 10000 to 25000 nM in assay [2].
Take `CCN[C@@H]1CCN(c2ccc(CCNC(=O)c3sc4nc(C)ccc4c3N)cc2)C1` [Example I-200, (R)-3-amino-N-(4-(3-(ethylamino)pyrrolidin-1-yl)phenethyl)-6-methylthieno[2,3-b]pyridine-2-carboxamide]: the IC50 in assay [1] and in assay [2] was 200 to 2000 nM each time.
`Nc1ccc2c(N)c(C(=O)NCCc3ccc(N4CCNCC4)cc3)sc2n1` [Example I-184]: the IC50 in assay [1] and in assay [2] was 200 to 2000 nM throughout.
On to `CC(C)Oc1ccc2c(N)c(C(=O)NCCc3ccc(N4CCNCC4)cc3)sc2n1` [Example I-192], for which the IC50 fell in the range of 200 to 2000 nM in assay [1] and 2000 to 10000 nM in assay [2].
The corresponding values for `CNc1ccc2c(N)c(C(=O)NCCc3ccc(C4CCNCC4)cc3)sc2n1` [Example I-196] are 200 to 2000 nM and 200 to 2000 nM.
In the case of `Cc1ccc2c(N)c(C(=O)NCCc3ccc(N4CC5CCC(C4)N5)cc3C#N)sc2n1` [Compound I-36], the figures for the IC50 in assay [1] and in assay [2] were under 200 nM and 200 to 2000 nM, respectively.
